This note sets out measurements from patent publication US20240018158A1, “BRM TARGETING COMPOUNDS AND ASSOCIATED METHODS OF USE” (Prelude Therapeutics Incorporated, priority 2020, published 2024).

What is called DC50 is the concentration at which degradation of the target reaches its halfway point.

The target in this experiment is SMARCA2 (Homo sapiens (Human), UniProt P51531). Nature of the experiment: SMARCA2 HiBiT degradation assay in HEK293T cells. Format: cell-based. As to conditions: 293T HiBiT assay, 24 h; for DC50: read-out: DC50 (SM2-293T) SMARCA2 degradation potency; for Dmax: HEK-293T, read-out: Dmax % (SM2-293T) maximum SMARCA2 degradation within the concentrations tested. Here is the method: HiBiT peptide knock-in of SMARCA2 in LgBiT expressing HEK293T cells was performed by CRISPR-mediated tagging system as described Promega. The homozygous HiBiT knock-in on c-terminus SMARCA2 was confirmed by sanger sequence. SMARCA2-HiBiT knock-in Hela monoclonal cell (CS302366) and SMARCA4-HiBiT knock-in Hela monoclonal cell (CS3023226) were purchased from Promega. The heterozygous HiBiT-knock-in was confirmed by sanger sequence in both SMARCA2-HiBiT and SMARCA4-HiBiT monoclonal cells. Compounds were prepared in a low dead volume plate at 3-fold serial dilution, and then transferred 25 nL/well into a 384 well plate (Corning: #356661) by Agilent Bravo liquid dispenser. SMARCA2-HiBiT monoclonal HEK293T cells were added at 5,000/well/25 uL into the compound containing 384 well plate. After 24 h incubation, 25 uL/well of Nano-Glo HiBiT Lytic detection buffer (Promega: N3050) was added to the wells and incubate for 10 min on a shaker, centrifuged for 5 min, and then RLU was detected on a microplate reader (Envision, PerkinElmer). The RLU ratio values are normalized to percent inhibition as follows: % inhibition=((HC−LC)−(compound−LC))/(HC−LC))*100, where HC=high control=mean signal of DMSO only; LC=low control=mean signal of 100% inhibition of RLU by 1 μM PRT1001728. An 11-point dose response curve for each compound will be generated using normalized % inhibition to determine IC50 values based on the equation: Y=Bottom+((Top-Bottom)/(1+((IC50/X)^Slope))), where Y is the % inhibition in the presence of X inhibitor concentration; Top=the top plateau of the curve; Bottom=the bottom plateau of the curve; Slope=Hill coefficient; DC50=concentration of compound with 50% degradation in relation to top/high control. DC50 values were determined by using XLfit Model 205.
Chain of SMARCA2 (P51531 whole entry): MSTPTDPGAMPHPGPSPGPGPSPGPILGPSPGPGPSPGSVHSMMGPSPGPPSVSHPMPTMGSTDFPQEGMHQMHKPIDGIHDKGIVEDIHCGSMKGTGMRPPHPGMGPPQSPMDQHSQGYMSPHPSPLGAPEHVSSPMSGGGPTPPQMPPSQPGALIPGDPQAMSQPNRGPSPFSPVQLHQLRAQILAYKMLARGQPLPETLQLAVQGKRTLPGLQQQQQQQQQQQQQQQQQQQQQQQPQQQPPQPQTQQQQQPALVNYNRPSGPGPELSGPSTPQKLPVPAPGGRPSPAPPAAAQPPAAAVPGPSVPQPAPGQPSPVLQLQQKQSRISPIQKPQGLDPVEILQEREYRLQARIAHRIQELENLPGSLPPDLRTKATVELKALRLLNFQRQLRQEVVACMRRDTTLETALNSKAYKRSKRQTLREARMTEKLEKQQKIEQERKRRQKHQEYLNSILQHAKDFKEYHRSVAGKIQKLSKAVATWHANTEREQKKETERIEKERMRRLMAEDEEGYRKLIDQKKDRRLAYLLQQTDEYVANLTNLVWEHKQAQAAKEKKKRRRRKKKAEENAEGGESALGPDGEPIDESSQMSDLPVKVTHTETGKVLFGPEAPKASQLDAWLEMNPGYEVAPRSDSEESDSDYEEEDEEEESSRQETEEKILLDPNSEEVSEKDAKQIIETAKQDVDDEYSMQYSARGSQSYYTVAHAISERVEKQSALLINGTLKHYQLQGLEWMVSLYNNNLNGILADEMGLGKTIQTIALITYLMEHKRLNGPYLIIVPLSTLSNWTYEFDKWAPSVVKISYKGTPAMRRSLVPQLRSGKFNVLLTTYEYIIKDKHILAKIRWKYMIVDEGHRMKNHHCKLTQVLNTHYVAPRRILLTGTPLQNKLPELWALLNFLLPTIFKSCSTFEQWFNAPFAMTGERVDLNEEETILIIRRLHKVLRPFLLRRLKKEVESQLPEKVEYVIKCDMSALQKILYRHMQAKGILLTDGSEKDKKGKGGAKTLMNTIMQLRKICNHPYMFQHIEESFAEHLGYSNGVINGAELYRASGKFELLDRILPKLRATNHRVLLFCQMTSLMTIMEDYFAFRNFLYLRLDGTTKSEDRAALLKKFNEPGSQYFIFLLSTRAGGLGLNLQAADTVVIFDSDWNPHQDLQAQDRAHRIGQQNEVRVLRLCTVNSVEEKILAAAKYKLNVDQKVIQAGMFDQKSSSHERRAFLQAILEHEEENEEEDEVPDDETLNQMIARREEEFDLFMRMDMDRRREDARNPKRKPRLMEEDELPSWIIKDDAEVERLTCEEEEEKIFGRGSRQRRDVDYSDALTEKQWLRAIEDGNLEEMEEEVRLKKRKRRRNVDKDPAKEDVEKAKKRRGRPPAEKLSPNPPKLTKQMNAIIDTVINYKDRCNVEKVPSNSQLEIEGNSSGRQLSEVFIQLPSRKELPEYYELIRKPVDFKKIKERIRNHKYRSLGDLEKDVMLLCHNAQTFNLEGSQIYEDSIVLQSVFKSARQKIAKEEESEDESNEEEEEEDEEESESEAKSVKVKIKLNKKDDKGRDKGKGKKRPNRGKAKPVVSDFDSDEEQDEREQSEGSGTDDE
For orientation: HiBiT is a short tag that completes a luciferase, so light tracks the accessible tagged protein.

In the case of `Cc1ncsc1-c1ccc([C@H](C)NC(=O)[C@@H]2C[C@@H](O)CN2C(=O)[C@@H](c2cc(OCCN3CCCC(N4CCN5c6cc(-c7ccccc7O)nnc6NC[C@H]5C4)CC3)no2)C(C)C)cc1` (stereo partly drawn) [Example 16, (2S,4R)-4-hydroxy-1-((2R)-2-(3-(2-(4-((S)-2-(2-hydroxyphenyl)-5,6,6a,7,9,10-hexahydro-8H-pyrazino[1′,2′:4,5]pyrazino[2,3-c]pyridazin-8-yl)azepan-1-yl)ethoxy)isoxazol-5-yl)-3-methylbutanoyl)-N-((S)-1-(4-(4-methylthiazol-5-yl)phenyl)ethyl)pyrrolidine-2-carboxamide], the DC50 is less than 100 nM and the Dmax was greater than 75%.
The matching figures for `Cc1ncsc1-c1ccc([C@H](C)NC(=O)[C@@H]2C[C@@H](O)CN2C(=O)[C@@H](c2cc(OC(C)CN3CCC(N4CCN5c6cc(-c7ccccc7O)nnc6NC[C@H]5C4)CC3)no2)C(C)C)cc1` (stereo partly drawn) [Example 17, (2S,4R)-4-hydroxy-1-((2R)-2-(3-((1-(4-((S)-2-(2-hydroxyphenyl)-5,6,6a,7,9,10-hexahydro-8H-pyrazino[1′,2′:4,5]pyrazino[2,3-c]pyridazin-8-yl)piperidin-1-yl)propan-2-yl)oxy)isoxazol-5-yl)-3-methylbutanoyl)-N-((S)-1-(4-(4-methylthiazol-5-yl)phenyl)ethyl)pyrrolidine-2-carboxamide]: less than 100 nM and greater than 75%.
Consider `Cc1ncsc1-c1ccc([C@H](C)NC(=O)[C@@H]2C[C@@H](O)CN2C(=O)[C@@H](c2cc(OCCN3CCC(CN4CCC(N5CCN6c7cc(-c8ccccc8O)nnc7NC[C@H]6C5)CC4)CC3)no2)C(C)C)cc1` [Example 20, (2S,4R)-4-hydroxy-1-((R)-2-(3-(2-(4-((4-((S)-2-(2-hydroxyphenyl)-5,6,6a,7,9,10-hexahydro-8H-pyrazino[1′,2′:4,5]pyrazino[2,3-c]pyridazin-8-yl)piperidin-1-yl)methyl)piperidin-1-yl)ethoxy)isoxazol-5-yl)-3-methylbutanoyl)-N-((S)-1-(4-(4-methylthiazol-5-yl)phenyl)ethyl)pyrrolidine-2-carboxamide], for which the half-maximal degradation concentration (DC50) was less than 100 nM and the Dmax was greater than 75%.
For `Cc1ncsc1-c1ccc([C@H](C)NC(=O)[C@@H]2C[C@@H](O)CN2C(=O)[C@@H](c2cc(OCCN3CCN(CCN4CCC(N5CCN6c7cc(-c8ccccc8O)nnc7NC[C@H]6C5)CC4)CC3)no2)C(C)C)cc1` [Example 21, (2S,4R)-4-hydroxy-1-((R)-2-(3-(2-(4-(2-(4-((S)-2-(2-hydroxyphenyl)-5,6,6a,7,9,10-hexahydro-8H-pyrazino[1′,2′:4,5]pyrazino[2,3-c]pyridazin-8-yl)piperidin-1-yl)ethyl)piperazin-1-yl)ethoxy)isoxazol-5-yl)-3-methylbutanoyl)-N-((S)-1-(4-(4-methylthiazol-5-yl)phenyl)ethyl)pyrrolidine-2-carboxamide], the DC50 is less than 100 nM and the Dmax was greater than 75%.
For `Cc1ncsc1-c1ccc([C@H](C)NC(=O)[C@@H]2C[C@@H](O)CN2C(=O)[C@@H](c2cc(OCCN3CCC(CCN4CCC(N5CCN6c7cc(-c8ccccc8O)nnc7NC[C@H]6C5)CC4)CC3)no2)C(C)C)cc1` [Example 22, (2S,4R)-4-hydroxy-1-((R)-2-(3-(2-(4-(2-(4-((S)-2-(2-hydroxyphenyl)-5,6,6a,7,9,10-hexahydro-8H-pyrazino[1′,2′:4,5]pyrazino[2,3-c]pyridazin-8-yl)piperidin-1-yl)ethyl)piperidin-1-yl)ethoxy)isoxazol-5-yl)-3-methylbutanoyl)-N-((S)-1-(4-(4-methylthiazol-5-yl)phenyl)ethyl)pyrrolidine-2-carboxamide] the same measures were less than 100 nM and greater than 75%.
For `Cc1ncsc1-c1ccc([C@H](C)NC(=O)[C@@H]2C[C@@H](O)CN2C(=O)[C@@H](c2cc(OC(C)CN3CCCC(CN4CCN5c6cc(-c7ccccc7O)nnc6NC[C@H]5C4)C3)no2)C(C)C)cc1` (stereo partly drawn) [Example 23, (2S,4R)-4-hydroxy-1-((2R)-2-(3-((1-(3-(((S)-2-(2-hydroxyphenyl)-5,6,6a,7,9,10-hexahydro-8H-pyrazino[1′,2′:4,5]pyrazino[2,3-c]pyridazin-8-yl)methyl)piperidin-1-yl)propan-2-yl)oxy)isoxazol-5-yl)-3-methylbutanoyl)-N-((S)-1-(4-(4-methylthiazol-5-yl)phenyl)ethyl)pyrrolidine-2-carboxamide] the same measures were less than 100 nM and greater than 75%.
Consider `Cc1ncsc1-c1ccc([C@H](C)NC(=O)[C@@H]2C[C@@H](O)CN2C(=O)[C@@H](c2cc(OC(C)CN3CCCC(CN4CCN5c6cc(-c7ccccc7O)nnc6NC[C@H]5C4)C3)no2)C(C)C)cc1` (stereo partly drawn) [Example 24, (2S,4R)-4-hydroxy-1-((2R)-2-(3-((1-(3-(((S)-2-(2-hydroxyphenyl)-5,6,6a,7,9,10-hexahydro-8H-pyrazino[1′,2′:4,5]pyrazino[2,3-c]pyridazin-8-yl)methyl)piperidin-1-yl)propan-2-yl)oxy)isoxazol-5-yl)-3-methylbutanoyl)-N-((S)-1-(4-(4-methylthiazol-5-yl)phenyl)ethyl)pyrrolidine-2-carboxamide], for which the DC50 is less than 100 nM.
As to `Cc1ncsc1-c1ccc([C@H](C)NC(=O)[C@@H]2C[C@@H](O)CN2C(=O)C(c2cc(CN3CCC(CN4CCN5c6cc(-c7ccccc7O)nnc6NC[C@H]5C4)CC3)no2)C(C)C)cc1` (stereo partly drawn) [Example 32, (2S,4R)-4-hydroxy-1-(2-(3-((4-(((S)-2-(2-hydroxyphenyl)-5,6,6a,7,9,10-hexahydro-8H-pyrazino[1′,2′:4,5]pyrazino[2,3-c]pyridazin-8-yl)methyl)piperidin-1-yl)methyl)isoxazol-5-yl)-3-methylbutanoyl)N-((S)-1-(4-(4-methylthiazol-5-yl)phenyl)ethyl)pyrrolidine-2-carboxamide], the 50% degradation concentration (DC50) was less than 100 nM and the Dmax is greater than 75%.
For `Cc1ncsc1-c1ccc([C@H](C)NC(=O)[C@@H]2C[C@@H](O)CN2C(=O)[C@@H](c2cc(CCCN3CCC(N4CCN5c6cc(-c7ccccc7O)nnc6NC[C@H]5C4)CC3)no2)C(C)C)cc1` [Example 33, (2S,4R)-4-hydroxy-1-((R)-2-(3-(3-(4-((S)-2-(2-hydroxyphenyl)-5,6,6a,7,9,10-hexahydro-8H-pyrazino[1′,2′:4,5]pyrazino[2,3-c]pyridazin-8-yl)piperidin-1-yl)propyl)isoxazol-5-yl)-3-methylbutanoyl)-N-((S)-1-(4-(4-methylthiazol-5-yl)phenyl)ethyl)pyrrolidine-2-carboxamide], the DC50 is less than 100 nM and the Dmax was greater than 75%.
The matching figures for `CC(C)[C@@H](C(=O)N1C[C@H](O)C[C@H]1C(=O)N[C@@H](C)c1ccc(C#N)cc1)c1cc(OCCN2CCC(CN3CCN4c5cc(-c6ccccc6O)nnc5NC[C@H]4C3)CC2)no1` [Example 35, (2S,4R)—N-((S)-1-(4-cyanophenyl)ethyl)-4-hydroxy-1-((R)-2-(3-(2-(4-(((S)-2-(2-hydroxyphenyl)-5,6,6a,7,9,10-hexahydro-8H-pyrazino[1′,2′:4,5]pyrazino[2,3-c]pyridazin-8-yl)methyl)piperidin-1-yl)ethoxy)isoxazol-5-yl)-3-methylbutanoyl)pyrrolidine-2-carboxamide]: less than 100 nM and greater than 75%.
The matching figures for `Cc1ncsc1-c1ccc([C@H](C)NC(=O)[C@@H]2C[C@@H](O)CN2C(=O)[C@@H](c2cc(OCCN3CCC(CN4CCN5c6cc(-c7ccccc7O)nnc6NC[C@H]5C4)CC3)no2)C(C)C)c(F)c1` [Example 36, (2S,4R)-N-((S)-1-(2-fluoro-4-(4-methylthiazol-5-yl)phenyl)ethyl)-4-hydroxy-1-((R)-2-(3-(2-(4-(((S)-2-(2-hydroxyphenyl)-5,6,6a,7,9,10-hexahydro-8H-pyrazino[1′,2′:4,5]pyrazino[2,3-c]pyridazin-8-yl)methyl)piperidin-1-yl)ethoxy)isoxazol-5-yl)-3-methylbutanoyl)pyrrolidine-2-carboxamide]: less than 100 nM and greater than 75%.
In the case of `Cc1nccn1-c1ccc([C@H](C)NC(=O)[C@@H]2C[C@@H](O)CN2C(=O)[C@@H](c2cc(OCCN3CCC(CN4CCN5c6cc(-c7ccccc7O)nnc6NC[C@H]5C4)CC3)no2)C(C)C)cc1` [Example 37, (2S,4R)-4-hydroxy-1-((R)-2-(3-(2-(4-(((S)-2-(2-hydroxyphenyl)-5,6,6a,7,9,10-hexahydro-8H-pyrazino[1′,2′:4,5]pyrazino[2,3-c]pyridazin-8-yl)methyl)piperidin-1-yl)ethoxy)isoxazol-5-yl)-3-methylbutanoyl)-N-((S)-1-(4-(2-methyl-1H-imidazol-1-yl)phenyl)ethyl)pyrrolidine-2-carboxamide], the DC50 was less than 100 nM and the Dmax was greater than 75%.
